Experimental data reported in the supplement of paper PMC10307832.

Assays:
Test in all cases: relative viability (nuclei count vs DMSO), 5 days (fraction); higher = more cells survive
NCI-H1355 = test system: NCI-H1355
Procedure, shortened: (§1)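 Lung cancer cell lines were pin-tool dosed in 1536-well plates on the day after seeding, with either a lone drug or a fixed anchor-drug dose plus five library-drug doses (not always all listed) in √10 steps. Nuclei were counted on 4× images after 5 days. Relative viability is the ratio of treated-well to vehicle-well nuclei counts, with each value a median of duplicate plates.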

NCI-H2170 = test system: NCI-H2170
Procedure, shortened: as §1

NCI-H3122 = test system: NCI-H3122
Procedure, shortened: as §1

NCI-H1651 = test system: NCI-H1651
Procedure, shortened: as §1

NCI-H2347 = test system: NCI-H2347
Procedure, shortened: as §1

SW 900 = test system: SW 900
Procedure, shortened: as §1

NCI-H322M = test system: NCI-H322M
Procedure, shortened: as §1

LCLC-103H = test system: LCLC-103H
Procedure, shortened: as §1

NCI-H661 = test system: NCI-H661
Procedure, shortened: as §1

NCI-H460 = test system: NCI-H460
Procedure, shortened: as §1

NCI-H650 = test system: NCI-H650
Procedure, shortened: as §1

LXF-289 = test system: LXF-289
Procedure, shortened: as §1

SK-MES-1 = test system: SK-MES-1
Procedure, shortened: as §1

RERF-LC-KJ = test system: RERF-LC-KJ
Procedure, shortened: as §1

NCI-H1563 = test system: NCI-H1563
Procedure, shortened: as §1

NCI-H596 = test system: NCI-H596
Procedure, shortened: as §1

NCI-H1755 = test system: NCI-H1755
Procedure, shortened: as §1

NCI-H520 = test system: NCI-H520
Procedure, shortened: as §1

NCI-H727 = test system: NCI-H727
Procedure, shortened: as §1

PC-14 = test system: PC-14
Procedure, shortened: as §1

NCI-H441 = test system: NCI-H441
Procedure, shortened: as §1

NCI-H1915 = test system: NCI-H1915
Procedure, shortened: as §1

C=C1C(=O)O[C@@H](CCCCCCCC)[C@@H]1C(=O)O [C-75] + COc1cc2c(Oc3ccc(NC(=O)C4(C(=O)Nc5ccc(F)cc5)CC4)cc3F)ccnc2cc1OCCCN1CCOCC1 [Foretinib] (partner 0.25 µM) showed a relative viability (NCI-H1355; first compound 0.08 µM) of 0.948, a relative viability (NCI-H1355; first compound 0.253 µM) of 0.892 and a relative viability (NCI-H1355; first compound 0.8 µM) of 0.972. For the same compound, the relative viability (NCI-H1355; first compound 2.53 µM) was 0.927, the relative viability (NCI-H1355; first compound 8 µM) was 0.958 and the relative viability (NCI-H2170; first compound 0.08 µM) was 1.06. For the same compound, the relative viability (NCI-H2170; first compound 0.253 µM) was 1.01, the relative viability (NCI-H2170; first compound 0.8 µM) was 0.987 and the relative viability (NCI-H2170; first compound 2.53 µM) was 0.591. The relative viability (NCI-H2170; first compound 8 µM) was 0.986, the relative viability (NCI-H3122; first compound 0.08 µM) was 0.966 and the relative viability (NCI-H3122; first compound 0.253 µM) was 0.848. It also gave a relative viability (NCI-H3122; first compound 0.8 µM) of 0.936, a relative viability (NCI-H3122; first compound 2.53 µM) of 0.952 and a relative viability (NCI-H3122; first compound 8 µM) of 0.983. The relative viability (NCI-H1651; first compound 0.08 µM) was 0.83, the relative viability (NCI-H1651; first compound 0.253 µM) was 0.944 and the relative viability (NCI-H1651; first compound 0.8 µM) was 0.725. For the same compound, the relative viability (NCI-H1651; first compound 2.53 µM) was 0.668, the relative viability (NCI-H1651; first compound 8 µM) was 0.958 and the relative viability (NCI-H2347; first compound 0.08 µM) was 0.83. The relative viability (NCI-H2347; first compound 0.253 µM) was 1.21, the relative viability (NCI-H2347; first compound 2.53 µM) was 0.876 and the relative viability (NCI-H2347; first compound 8 µM) was 0.472. It also gave a relative viability (SW 900; first compound 0.08 µM) of 0.913, a relative viability (SW 900; first compound 0.253 µM) of 1.07 and a relative viability (SW 900; first compound 0.8 µM) of 0.842. The relative viability (SW 900; first compound 2.53 µM) was 0.945, the relative viability (SW 900; first compound 8 µM) was 0.804 and the relative viability (NCI-H322M; first compound 0.08 µM) was 0.928. The relative viability (NCI-H322M; first compound 0.253 µM) was 1.33, the relative viability (NCI-H322M; first compound 0.8 µM) was 0.839 and the relative viability (NCI-H322M; first compound 2.53 µM) was 0.902. The relative viability (NCI-H322M; first compound 8 µM) was 0.964, the relative viability (LCLC-103H; first compound 0.08 µM) was 0.814 and the relative viability (LCLC-103H; first compound 0.253 µM) was 0.736. For the same compound, the relative viability (LCLC-103H; first compound 0.8 µM) was 0.687, the relative viability (LCLC-103H; first compound 2.53 µM) was 0.598 and the relative viability (LCLC-103H; first compound 8 µM) was 0.743. The relative viability (NCI-H661; first compound 0.08 µM) was 1.06, the relative viability (NCI-H661; first compound 0.253 µM) was 1.01 and the relative viability (NCI-H661; first compound 0.8 µM) was 0.998. The relative viability (NCI-H661; first compound 2.53 µM) was 0.901, the relative viability (NCI-H661; first compound 8 µM) was 0.896 and the relative viability (NCI-H460; first compound 0.08 µM) was 1.01. For the same compound, the relative viability (NCI-H460; first compound 0.253 µM) was 1.09, the relative viability (NCI-H460; first compound 0.8 µM) was 0.891 and the relative viability (NCI-H460; first compound 8 µM) was 0.977. It also gave a relative viability (NCI-H650; first compound 0.08 µM) of 1, a relative viability (NCI-H650; first compound 0.253 µM) of 0.818 and a relative viability (NCI-H650; first compound 0.8 µM) of 1.04. The relative viability (NCI-H650; first compound 2.53 µM) was 0.995, the relative viability (NCI-H650; first compound 8 µM) was 0.993 and the relative viability (LXF-289; first compound 0.08 µM) was 0.949. It also gave a relative viability (LXF-289; first compound 0.253 µM) of 0.965, a relative viability (LXF-289; first compound 0.8 µM) of 0.932 and a relative viability (LXF-289; first compound 2.53 µM) of 0.654. The relative viability (LXF-289; first compound 8 µM) was 0.948, the relative viability (SK-MES-1; first compound 0.08 µM) was 1.06 and the relative viability (SK-MES-1; first compound 0.253 µM) was 0.773. The relative viability (SK-MES-1; first compound 0.8 µM) was 0.978, the relative viability (SK-MES-1; first compound 8 µM) was 0.925 and the relative viability (RERF-LC-KJ; first compound 0.08 µM) was 0.94. It also gave a relative viability (RERF-LC-KJ; first compound 0.253 µM) of 0.973, a relative viability (RERF-LC-KJ; first compound 0.8 µM) of 0.909 and a relative viability (RERF-LC-KJ; first compound 2.53 µM) of 0.797. For the same compound, the relative viability (RERF-LC-KJ; first compound 8 µM) was 0.961, the relative viability (NCI-H1563; first compound 0.08 µM) was 0.953 and the relative viability (NCI-H1563; first compound 0.253 µM) was 0.955. For the same compound, the relative viability (NCI-H1563; first compound 0.8 µM) was 0.883, the relative viability (NCI-H1563; first compound 2.53 µM) was 0.844 and the relative viability (NCI-H1563; first compound 8 µM) was 0.877. For the same compound, the relative viability (NCI-H596; first compound 0.08 µM) was 0.878, the relative viability (NCI-H596; first compound 0.253 µM) was 1.01 and the relative viability (NCI-H596; first compound 0.8 µM) was 0.871. The relative viability (NCI-H596; first compound 2.53 µM) was 1, the relative viability (NCI-H596; first compound 8 µM) was 0.869 and the relative viability (NCI-H1755; first compound 0.08 µM) was 0.922. For the same compound, the relative viability (NCI-H1755; first compound 0.253 µM) was 0.886, the relative viability (NCI-H1755; first compound 0.8 µM) was 0.94 and the relative viability (NCI-H1755; first compound 2.53 µM) was 0.888. It also gave a relative viability (NCI-H1755; first compound 8 µM) of 0.878, a relative viability (NCI-H520; first compound 0.08 µM) of 0.728 and a relative viability (NCI-H520; first compound 0.253 µM) of 0.95. It also gave a relative viability (NCI-H520; first compound 0.8 µM) of 0.831, a relative viability (NCI-H520; first compound 2.53 µM) of 0.909 and a relative viability (NCI-H520; first compound 8 µM) of 0.794. The relative viability (NCI-H727; first compound 0.08 µM) was 0.796, the relative viability (NCI-H727; first compound 0.253 µM) was 1.33 and the relative viability (NCI-H727; first compound 0.8 µM) was 0.695. For the same compound, the relative viability (NCI-H727; first compound 8 µM) was 0.917, the relative viability (PC-14; first compound 0.08 µM) was 0.949 and the relative viability (PC-14; first compound 0.253 µM) was 0.911. It also gave a relative viability (PC-14; first compound 0.8 µM) of 0.956, a relative viability (PC-14; first compound 2.53 µM) of 0.74 and a relative viability (PC-14; first compound 8 µM) of 0.891. The relative viability (NCI-H441; first compound 0.08 µM) was 1.01, the relative viability (NCI-H441; first compound 0.253 µM) was 0.958 and the relative viability (NCI-H441; first compound 0.8 µM) was 1.03. For the same compound, the relative viability (NCI-H441; first compound 2.53 µM) was 0.789, the relative viability (NCI-H441; first compound 8 µM) was 1.15 and the relative viability (NCI-H1915; first compound 0.08 µM) was 1.04. It also gave a relative viability (NCI-H1915; first compound 0.253 µM) of 1.1, a relative viability (NCI-H1915; first compound 0.8 µM) of 1.03 and a relative viability (NCI-H1915; first compound 2.53 µM) of 1.07. It also gave a relative viability (NCI-H1915; first compound 8 µM) of 1.05.
